Assay results published in ChEMBL document CHEMBL4007398, “Inhibitors of Influenza Virus Polymerase Acidic (PA) Endonuclease: Contemporary Developments and Perspectives” (J Med Chem, 2017).

What was measured:
[1] = biological target: Polymerase acidic protein (Influenza A virus (A/Puerto Rico/8/1934(H1N1)), UniProt P03433); experiment: Inhibition of influenza A virus (A/PR/8/34) N-terminal PA endonuclease using 880 nucleotide ALMV cap1 primer RNA as substrate
[2] = Inhibition of recombinant influenza A virus A/X-31 N-terminal 6His tagged-PA endonuclease (1 to 217 residues) expressed in Escherichia coli BL21-CodonPlus cells after 2 hrs using single stranded circular DNA plasmid M13mp18 as substrate by ethidium bromide staining based agarose gel electrophoresis; design: species or system Influenza A virus (A/X-31(H3N2))
Influenza A virus [3] = experiment: Antiviral activity against influenza A virus (A/PR/8/34) infected in HEK293 cells after 24 hrs by firefly luciferase reporter gene based vRNP-reconstitution assay; format: functional, cell-based; settings: A/Puerto Rico/8/1934(H1N1), HEK293, 24 h
[4] = Cytotoxicity against HEK293 cells assessed as reduction in cell viability by MTS assay; format: cell-based; settings: human
[5] = Antiviral activity against influenza A virus (A/WSN/33 (H1N1)) infected in MDCK cells after 48 hrs by crystal violet staining based plaque reduction assay; format: functional, cell-based, Influenza A virus (A/WSN/1933(H1N1))
[6] = Cytotoxicity against MDCK cells assessed as reduction in cell viability after 48 hrs by WST-1 assay; format: cell-based, Canis lupus familiaris; settings: dog
Influenza A virus [7] = experiment: Antiviral activity against influenza A virus (A/PR/8/34) infected in MDCK cells assessed as reduction in viral yield incubated for 30 mins prior to infection measured after 24 hrs by plaque reduction assay; format: functional, cell-based; settings: A/Puerto Rico/8/1934(H1N1)
Influenza A virus [8] = experiment: Antiviral activity against influenza A virus; format: functional
[9] = Inhibition of recombinant influenza A virus A/X-31 N-terminal 6His tagged-PA endonuclease (1 to 217 residues) expressed in Escherichia coli BL21-CodonPlus cells after 1 hr using single stranded circular DNA plasmid M13mp18 as substrate by ethidium bromide staining based agarose gel electrophoresis; design: species or system Influenza A virus (A/X-31(H3N2))
[10] = Inhibition of influenza A virus N-terminal PA endonuclease
[11] = Binding affinity to influenza A virus PA endonuclease by isothermal titration calorimetry
[12] = Antiviral activity against influenza A virus (A/HK/415742/09(H1N1)) infected in MDCK cells by plaque reduction assay; format: functional, cell-based, Influenza A virus (A/Hong Kong/415742/2009(H1N1))
[13] = Cytotoxicity against MDCK cells by MTT assay; format: cell-based, Canis lupus familiaris; settings: dog
[14] = Inhibition of recombinant influenza A virus A/X-31 N-terminal PA endonuclease (1 to 217 residues) after 2 hrs using single stranded circular DNA plasmid M13mp18 as substrate by ethidium bromide staining based agarose gel electrophoresis; design: species or system Influenza A virus (A/X-31(H3N2))
Influenza A virus [15] = experiment: Antiviral activity against influenza A virus ((A/PR/8/34) infected in MDCK cells assessed as reduction in viral yield after 24 hrs by qRT-PCR assay; format: functional; settings: A/Puerto Rico/8/1934(H1N1)
[16] = Cytotoxicity against MDCK cells assessed as reduction in cell viability after 24 hrs by MTS assay; format: cell-based, Canis lupus familiaris; settings: dog
[17] = Cytotoxicity against HEK293 cells assessed as reduction in cell viability after 24 hrs by MTS assay; format: cell-based; settings: human
Influenza A virus [18] = experiment: Antiviral activity against influenza A virus infected in HEK293 cells after 24 hrs by firefly luciferase reporter gene based vRNP-reconstitution assay; format: functional, cell-based; settings: HEK293, 24 h
Influenza A virus [19] = experiment: Antiviral activity against influenza A virus H1N1 infected in MDCK cells assessed as reduction of virus-induced cytopathic effect after 48 hrs by CellTiter-Glo luminescent assay; format: functional, cell-based
Influenza A virus (H1N1) = experiment: Antiviral activity against influenza A virus H1N1-pdm09 infected in MDCK cells assessed as reduction of virus-induced cytopathic effect after 48 hrs by CellTiter-Glo luminescent assay; format: functional, cell-based
Influenza A virus H3N2 = experiment: Antiviral activity against influenza A virus H3N2 infected in MDCK cells assessed as reduction of virus-induced cytopathic effect after 48 hrs by CellTiter-Glo luminescent assay; format: functional, cell-based
H5N1 subtype = experiment: Antiviral activity against influenza A virus H5N1 infected in MDCK cells assessed as reduction of virus-induced cytopathic effect after 48 hrs by CellTiter-Glo luminescent assay; format: functional, cell-based
[20] = Antiviral activity against influenza A virus H7N9 infected in MDCK cells assessed as reduction of virus-induced cytopathic effect after 48 hrs by CellTiter-Glo luminescent assay; format: functional, cell-based, H7N9 subtype
[21] = Antiviral activity against influenza A virus H9N2 infected in MDCK cells assessed as reduction of virus-induced cytopathic effect after 48 hrs by CellTiter-Glo luminescent assay; format: functional, cell-based, H9N2 subtype
Influenza B virus [22] = experiment: Antiviral activity against influenza B virus infected in MDCK cells assessed as reduction of virus-induced cytopathic effect after 48 hrs by CellTiter-Glo luminescent assay; format: functional, cell-based
[23] = Cytotoxicity against MDCK cells assessed as reduction in cell viability after 48 hrs in serum free conditions by CellTiter-Glo luminescent assay; format: cell-based, Canis lupus familiaris; settings: dog
[24] = Cytotoxicity against MDCK cells assessed as reduction in cell viability after 48 hrs in presence of 5 % serum by CellTiter-Glo luminescent assay; format: cell-based, Canis lupus familiaris; settings: dog
[25] = Antiviral activity against influenza A virus (A/Chile/1/83) infected in MDCK cells after 2 to 3 days by crystal violet staining based plaque reduction assay; format: functional, cell-based, Influenza A virus (A/Chile/1/1983(H1N1))
[26] = Antiviral activity against influenza A virus (A/Sydney/5/97) infected in MDCK cells after 2 to 3 days by crystal violet staining based plaque reduction assay; format: functional, cell-based, Influenza A virus (A/Sydney/5/1997(H3N2))
Influenza B virus [27] = experiment: Antiviral activity against influenza B virus (B/Yamagata/16/88) infected in MDCK cells after 2 to 3 days by crystal violet staining based plaque reduction assay; format: functional, cell-based; settings: B/Yamagata/16/1988, MDCK
[28] = Cytotoxicity against MDCK cells after 48 hrs by MTT assay; format: cell-based, Canis lupus familiaris; settings: dog

CC(C)/C=C1\N=C(CC(C)C)C(=O)N(O)C1=O
IC50 [1]: 5.1 to 5.5 µM

NC(=S)N/N=C/c1cccc(O)c1O
IC50 [2]: 37 µM
EC50 (Influenza A virus [3]): 63 µM
CC50 [4]: > 200 µM

OC(CN1CCCCC1)Cn1c2c(c3ccccc31)CCCC2 (stereo unspecified)
EC50 [5]: 36.5 µM
CC50 at 48 h [6]: > 200 µM

O=C(O)/C(O)=C/C(=O)C1(Cc2ccc(Cl)cc2)CCN(CC2CCCCC2)CC1
EC50 (Influenza A virus [7]): 0.18 to 0.71 µM

CC(=O)Nc1cccc(-c2nc(C(=O)O)c(O)c(=O)[nH]2)c1
EC50 (Influenza A virus [8]): > 50 µM

Cn1cnc(-c2nc(C(=O)O)c(O)c(=O)[nH]2)c1
EC50 (Influenza A virus [8]): > 50 µM

O=C(O)/C(O)=C/C(=O)C1(Cc2ccc(Cl)cc2)CCN(Cc2ccc(Cl)cc2)CC1
EC50 (Influenza A virus [7]): 0.18 to 0.71 µM

O=C(O)/C(O)=C/C(=O)C1(Cc2ccc(Cl)cc2)CCCN(Cc2ccccc2)C1 (stereo unspecified)
EC50 (Influenza A virus [7]): 0.18 to 0.71 µM

O=C(O)/C(O)=C/C(=O)C1(Cc2ccc(Cl)cc2)CCCN(S(=O)(=O)Cc2ccccc2)C1 (stereo unspecified)
EC50 (Influenza A virus [7]): 0.18 to 0.71 µM

O=C(NCc1ccc(F)cc1)c1cccc(O)c1O
IC50 [9]: 33 µM

O=c1[nH]cc(Br)cc1O
IC50 [10]: 16 µM

CN(C)c1ccc(/C=C2\C/C(=N\N=C3\C(=O)Nc4ccccc43)NC2=O)cc1
Kd [11]: 1.3 µM
EC50 [12]: 1.5 µM
CC50 [13]: > 300 µM

O=C(N/N=C/c1cc(O)c(O)c(O)c1)c1cc(O)c(O)c(O)c1
IC50 [14]: 8.7 µM
EC90 (Influenza A virus [15]): 3.5 µM
CC50 at 24 h [16]: > 200 µM
CC50 at 24 h [17]: > 200 µM
EC50 (Influenza A virus [18]): 3.1 µM

O=C1Nc2ccccc2/C1=N\N=C1/C/C(=C2\C(=O)Nc3ccccc32)C(=O)N1
Kd [11]: 1.1 µM
EC50 [12]: 0.8 µM
CC50 [13]: > 400 µM

NC(=O)N/N=C/c1cccc(O)c1O
IC50 [2]: 24 µM
EC50 (Influenza A virus [3]): 107 µM
CC50 [4]: > 200 µM

C[C@@H](N1CN([C@H]2c3ccccc3CSc3ccccc32)n2ccc(=O)c(O)c2C1=O)C(F)(F)F
EC50 (Influenza A virus [19]): 0.0083 µM
EC50 (Influenza A virus (H1N1)): 0.007 µM
EC50 (Influenza A virus H3N2): 0.0085 µM
EC50 (H5N1 subtype): 0.0139 µM
EC50 [20]: 0.0154 µM
EC50 [21]: 0.0122 µM
EC50 (Influenza B virus [22]): 0.0128 µM
CC50 at 48 h [23]: 11.9 µM
CC50 at 48 h [24]: 86.2 µM

O=C(O)/C(O)=C/C(=O)c1cccn1Cc1ccc(F)cc1
IC50 [2]: 0.8 µM

O=C(O[C@@H]1Cc2c(O)cc(O)cc2O[C@@H]1c1ccc(O)c(O)c1)c1cc(O)c(O)c(O)c1 [EPICATECHIN GALLATE]
EC50 [25]: 26.4 µM
EC50 [26]: 22.2 µM
EC50 (Influenza B virus [27]): 40.4 µM
CC50 at 48 h [28]: 526 µM

O=C(O[C@@H]1Cc2c(O)cc(O)cc2O[C@@H]1c1cc(O)c(O)c(O)c1)c1cc(O)c(O)c(O)c1 [EPIGALOCATECHIN GALLATE]
EC50 [25]: 28.4 µM
EC50 [26]: 22.8 µM
EC50 (Influenza B virus [27]): 26.1 µM
CC50 at 48 h [28]: 275 µM
